± gives the expanded uncertainty stated by the source.
Assay: xn = mol fraction of the nth substance listed
Settings: 101 kPa, Liquid, Voltage change across transformer (no electrode)

CCCC[n+]1ccc(C)cc1.F[B-](F)(F)F [1-butyl-4-methylpyridinium tetrafluoroborate] + CCO
electrical conductivity [S/m]
Settings	293.15 K	303.15 K	313.15 K	323.15 K
x1 = 0.0448	0.696 ± 0.028	0.877 ± 0.035	1.01 ± 0.041	1.1 ± 0.044
x1 = 0.0521	0.791 ± 0.032	1.01 ± 0.04	1.22 ± 0.049	1.3 ± 0.052
x1 = 0.0608	0.893 ± 0.036	1.15 ± 0.046	1.42 ± 0.057	1.55 ± 0.062
x1 = 0.0701	0.991 ± 0.04	1.28 ± 0.051	1.58 ± 0.063	1.76 ± 0.07
x1 = 0.0843	1.15 ± 0.046	1.47 ± 0.059	1.82 ± 0.073	1.95 ± 0.078
x1 = 0.1046	1.29 ± 0.052	1.65 ± 0.066	2.08 ± 0.083	2.41 ± 0.1
x1 = 0.1232	1.39 ± 0.056	1.8 ± 0.072	2.26 ± 0.09	2.64 ± 0.11
x1 = 0.1347	1.44 ± 0.058	1.86 ± 0.074	2.33 ± 0.093	2.76 ± 0.11
x1 = 0.1551	1.5 ± 0.06	1.95 ± 0.078	2.47 ± 0.099	2.92 ± 0.12
x1 = 0.1602	1.51 ± 0.061	1.97 ± 0.079	2.49 ± 0.1	2.96 ± 0.12
x1 = 0.2251	1.59 ± 0.063	2.09 ± 0.084	2.67 ± 0.11	3.22 ± 0.13
x1 = 0.247	1.59 ± 0.063	2.09 ± 0.084	2.68 ± 0.11	3.26 ± 0.13
x1 = 0.3371	1.52 ± 0.061	2.02 ± 0.081	2.61 ± 0.1	3.22 ± 0.13
x1 = 0.3512	1.5 ± 0.06	2 ± 0.08	2.59 ± 0.1	3.22 ± 0.13
x1 = 0.3799	1.45 ± 0.058	1.95 ± 0.078	2.52 ± 0.1	3.17 ± 0.13
x1 = 0.3856	1.44 ± 0.058	1.94 ± 0.077	2.52 ± 0.1	3.16 ± 0.13
x1 = 0.4126	1.4 ± 0.056	1.88 ± 0.075	2.46 ± 0.098	3.1 ± 0.12
x1 = 0.5649	1.1 ± 0.044	1.37 ± 0.055	2.01 ± 0.08	2.63 ± 0.11
x1 = 0.6798	0.851 ± 0.034	1.02 ± 0.041	1.61 ± 0.064	2.16 ± 0.09
x1 = 0.7941	0.601 ± 0.024	0.696 ± 0.028	1.2 ± 0.048	1.68 ± 0.067
x1 = 0.9258	0.305 ± 0.012	0.38 ± 0.015	0.717 ± 0.029	1.06 ± 0.043
x1 = 0.9963	0.154 ± 0.0063	0.242 ± 0.01	0.459 ± 0.019	0.74 ± 0.03
x1 = 1	0.132 ± 0.0053	0.254 ± 0.01	0.439 ± 0.018	0.687 ± 0.027

CCCC[n+]1ccccc1.F[B-](F)(F)F [1-butylpyridinium tetrafluoroborate] + CCO
electrical conductivity [S/m]
Settings	303.15 K	313.15 K	323.15 K
x1 = 0.0353	0.785 ± 0.032	1.02 ± 0.041	1.32 ± 0.053
x1 = 0.0417	0.863 ± 0.035	1.18 ± 0.047	1.38 ± 0.055
x1 = 0.0455	1.06 ± 0.043	1.27 ± 0.051	1.54 ± 0.062
x1 = 0.0461	1.04 ± 0.042	1.29 ± 0.052	1.54 ± 0.062
x1 = 0.0551	1.15 ± 0.048	1.48 ± 0.06	1.72 ± 0.071
x1 = 0.0564	1.24 ± 0.051	1.5 ± 0.06	1.83 ± 0.075
x1 = 0.0634	1.44 ± 0.058	1.64 ± 0.066	2.22 ± 0.09
x1 = 0.0735	1.43 ± 0.057	1.82 ± 0.073	2.12 ± 0.08
x1 = 0.084	1.56 ± 0.062	1.98 ± 0.079	2.31 ± 0.09
x1 = 0.1033	1.68 ± 0.07	2.24 ± 0.09	2.56 ± 0.1
x1 = 0.1165	1.8 ± 0.072	2.39 ± 0.1	2.7 ± 0.11
x1 = 0.1291	1.86 ± 0.074	2.51 ± 0.1	2.92 ± 0.12
x1 = 0.1597	2.16 ± 0.09	2.74 ± 0.11	3.01 ± 0.12
x1 = 0.1656	2.28 ± 0.09	2.77 ± 0.11	3.23 ± 0.13
x1 = 0.2093	2.38 ± 0.1	2.95 ± 0.12	3.41 ± 0.14
x1 = 0.2237	2.44 ± 0.1	2.96 ± 0.12	3.43 ± 0.14
x1 = 0.2751	2.46 ± 0.1	2.97 ± 0.12	3.45 ± 0.14
x1 = 0.3929	2.17 ± 0.09	2.7 ± 0.11	3.2 ± 0.13
x1 = 0.4464	1.96 ± 0.078	2.5 ± 0.1	2.86 ± 0.11
x1 = 0.5095	1.66 ± 0.066	2.2 ± 0.09	2.56 ± 0.1
x1 = 0.617	1.2 ± 0.048	1.77 ± 0.071	2.17 ± 0.09
x1 = 0.7008	0.884 ± 0.035	1.43 ± 0.057	1.71 ± 0.068
x1 = 0.8158	0.566 ± 0.023	1.03 ± 0.041	1.28 ± 0.051
x1 = 0.8973	0.436 ± 0.017	0.821 ± 0.033	1.04 ± 0.042
x1 = 1	0.321 ± 0.013	0.519 ± 0.021	0.785 ± 0.031

Source: the NIST ThermoML archive (doi:10.1021/je301347v)
